The values that follow come from patent US10590140B2, “Tetrahydropyrimidodiazepine and dihydropyridodiazepine compounds for treating pain and pain related conditions” (ESTEVE PHARMACEUTICALS, S.A., priority 2016, dated 2020).

A value given as a limit tells only on which side of the number the result lay.

The target in this assay is human α2δ-1 subunit of Cav2.2 calcium channel (Homo sapiens (Human), UniProt P54289). The experiment in a line: Binding assay to human α2δ-1 subunit of Cav2.2 calcium channel ([3H]-Gabapentin). As to conditions: binding to α2δ-1, [3H]-Gabapentin; read-out: Ki (nM) α2δ-1. Put shortly:
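Radioactivity on dried GF/C filters quantified by scintillation after filtration and three cold Tris-HCl (pH 7.4) washes. Incubation ran 60 min at 27° C with [3H]-gabapentin; 10 μM pregabalin gave nonspecific binding.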

Sequence of human α2δ-1 subunit of Cav2.2 calcium channel (P54289 25-1103): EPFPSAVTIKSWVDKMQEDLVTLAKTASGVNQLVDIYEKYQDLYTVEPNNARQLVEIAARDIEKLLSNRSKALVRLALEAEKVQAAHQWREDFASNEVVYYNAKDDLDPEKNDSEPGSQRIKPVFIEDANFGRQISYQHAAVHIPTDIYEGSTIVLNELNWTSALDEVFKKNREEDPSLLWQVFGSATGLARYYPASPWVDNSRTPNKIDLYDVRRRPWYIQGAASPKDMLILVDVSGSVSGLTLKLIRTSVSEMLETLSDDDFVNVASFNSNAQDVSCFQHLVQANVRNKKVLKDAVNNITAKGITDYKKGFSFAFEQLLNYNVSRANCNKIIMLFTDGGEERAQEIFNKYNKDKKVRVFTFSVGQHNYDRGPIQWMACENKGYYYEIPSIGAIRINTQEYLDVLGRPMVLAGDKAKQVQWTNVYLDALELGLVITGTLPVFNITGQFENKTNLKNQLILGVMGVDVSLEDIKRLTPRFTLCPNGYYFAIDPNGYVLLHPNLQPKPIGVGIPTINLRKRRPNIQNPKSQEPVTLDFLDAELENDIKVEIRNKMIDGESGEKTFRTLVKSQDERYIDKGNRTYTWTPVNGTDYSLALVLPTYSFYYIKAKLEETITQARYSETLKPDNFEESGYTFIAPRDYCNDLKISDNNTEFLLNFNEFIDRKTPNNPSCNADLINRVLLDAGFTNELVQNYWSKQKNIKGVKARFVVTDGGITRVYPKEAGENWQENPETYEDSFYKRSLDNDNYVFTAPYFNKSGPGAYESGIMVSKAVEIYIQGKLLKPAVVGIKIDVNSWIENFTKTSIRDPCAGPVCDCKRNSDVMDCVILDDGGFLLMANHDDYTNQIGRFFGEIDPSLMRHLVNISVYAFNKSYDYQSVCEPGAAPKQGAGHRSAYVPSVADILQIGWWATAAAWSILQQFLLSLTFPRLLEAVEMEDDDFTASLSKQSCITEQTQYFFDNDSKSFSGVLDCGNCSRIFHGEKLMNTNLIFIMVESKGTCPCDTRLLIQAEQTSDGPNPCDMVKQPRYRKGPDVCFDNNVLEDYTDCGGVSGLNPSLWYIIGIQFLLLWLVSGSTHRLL

The term Ki denotes a dissociation constant, usually derived from enzyme kinetics or from competition with a known ligand. On to `CCNc1ncc2c(n1)N(C)CCN(c1cccc(OCCCNC)c1)C2=O` [Example 168, 2-(ethylamino)-9-methyl-6-(3-(3-(methylamino)propoxy)phenyl)-6,7,8,9-tetrahydro-5H-pyrimido[4,5-e][1,4]diazepin-5-one], for which the Ki is 100 to 500 nM.

Regarding `CSc1ncc2c(n1)N(C)CCN(Cc1ccc(OC(CN(C)C(=O)OC(C)(C)C)c3ccccc3)cc1)C2=O` (centres unmarked) [Example 63, tert-butyl methyl(2-(4-((9-methyl-2-(methylthio)-5-oxo-5,7,8,9-tetrahydro-6H-pyrimido[4,5-e][1,4]diazepin-6-yl)methyl)phenoxy)-2-phenylethyl)carbamate], the Ki is more than 3000 nM. Turning to `CSc1ncc2c(n1)N(C)CCN(c1cccc(COC3(c4ccccc4)CCN(C(=O)OC(C)(C)C)CC3)c1)C2=O` [Example 28, tert-butyl 4-((3-(9-methyl-2-(methylthio)-5-oxo-5,7,8,9-tetrahydro-6H-pyrimido[4,5-e][1,4]diazepin-6-yl)benzyl)oxy)-4-phenylpiperidine-1-carboxylate], the Ki was more than 3000 nM.

As to `CCNc1ncc2c(n1)N(C)CCN(c1cccc(OC(CCN(C)C(=O)OC(C)(C)C)c3ccccc3)c1)C2=O` (centres unmarked) [Example 69, tert-Butyl (3-(3-(2-(ethylamino)-9-methyl-5-oxo-5,7,8,9-tetrahydro-6H-pyrimido[4,5-e][1,4]diazepin-6-yl)phenoxy)-3-phenylpropyl)(methyl)carbamate], the Ki was more than 3000 nM. With `CCNCc1cn(-c2cccc(N3CCN(C)c4nc(NCC)ncc4C3=O)c2)nn1` [Example 286, 2-(ethylamino)-6-(3-(4-((ethylamino)methyl)-1H-1,2,3-triazol-1-yl)phenyl)-9-methyl-6,7,8,9-tetrahydro-5H-pyrimido[4,5-e] [1,4]diazepin-5-one], the Ki was 100 to 500 nM. Consider `CSc1ncc2c(n1)N(C)CCN(c1cccc(CO[C@H](CCN(C)C(=O)OC(C)(C)C)c3cccs3)c1)C2=O` [Example 16, tert-butyl (R)-methyl(3-((3-(9-methyl-2-(methylthio)-5-oxo-5,7,8,9-tetrahydro-6H-pyrimido[4,5-e][1,4]diazepin-6-yl)benzyl)oxy)-3-(thiophen-2-yl)propyl) carbamate], for which the Ki is more than 3000 nM. Consider `CNCC[C@H](Oc1ccc(CN2CCN(C)c3ccncc3C2=O)cc1)c1ccccc1` [Example 377, (S)-1-methyl-4-(4-(3-(methylamino)-1-phenylpropoxy)benzyl)-1,2,3,4-tetrahydro-5H-pyrido[4,3-e][1,4]diazepin-5-one], for which the Ki is 500 to 3000 nM. With `CCNc1ncc2c(n1)N(C)CCN(c1cccc(-c3noc(C)n3)c1)C2=O` [Example 108, 2-(ethylamino)-9-methyl-6-(3-(5-methyl-1,2,4-oxadiazol-3-yl)phenyl)-6,7,8,9-tetrahydro-5H-pyrimido[4,5-e][1,4]diazepin-5-one], the Ki was in the range of 100 to 500 nM. Consider `CCNc1ncc2c(n1)N(C)CCN(c1cccc(-n3cc(CN(C)C(=O)OC(C)(C)C)cn3)c1)C2=O` [Example 122, tert-butyl ((1-(3-(2-(ethylamino)-9-methyl-5-oxo-5,7,8,9-tetrahydro-6H-pyrimido[4,5-e][1,4]diazepin-6-yl)phenyl)-1H-pyrazol-4-yl)methyl)(methyl) carbamate], for which the Ki was more than 3000 nM.

As for `CNCC(Oc1ccccc1N1CCN(C)c2nc(SC)ncc2C1=O)c1ccccc1` (centres unmarked) [Example 319, 9-methyl-6-(2-(2-(methylamino)-1-phenylethoxy)phenyl)-2-(methylthio)-6,7,8,9-tetrahydro-5H-pyrimido[4,5-e][1,4]diazepin-5-one], the Ki was more than 3000 nM. For the molecule `CCNc1ncc2c(n1)N(C)CCN(c1cccc(-n3cc(CN(C)C(=O)OC(C)(C)C)nn3)c1)C2=O` [Example 116, tert-butyl ((1-(3-(2-(ethylamino)-9-methyl-5-oxo-5,7,8,9-tetrahydro-6H-pyrimido[4,5-e][1,4]diazepin-6-yl)phenyl)-1H-1,2,3-triazol-4-yl)methyl)(methyl) carbamate], the Ki is more than 3000 nM.
